# Data taken from patent publication US8431593B2, “Heteroaryl amide derivatives” (H. Lundbeck A/S, priority 2006, dated 2013).
# Like-named read-outs stand apart in the source and are kept apart here.
# Biological target: T1, P2X7 receptor (Homo sapiens, UniProt Q99572)
# T1 construct: host or cells: SH-SY5Y
# T1 sequence (Q99572 1-595): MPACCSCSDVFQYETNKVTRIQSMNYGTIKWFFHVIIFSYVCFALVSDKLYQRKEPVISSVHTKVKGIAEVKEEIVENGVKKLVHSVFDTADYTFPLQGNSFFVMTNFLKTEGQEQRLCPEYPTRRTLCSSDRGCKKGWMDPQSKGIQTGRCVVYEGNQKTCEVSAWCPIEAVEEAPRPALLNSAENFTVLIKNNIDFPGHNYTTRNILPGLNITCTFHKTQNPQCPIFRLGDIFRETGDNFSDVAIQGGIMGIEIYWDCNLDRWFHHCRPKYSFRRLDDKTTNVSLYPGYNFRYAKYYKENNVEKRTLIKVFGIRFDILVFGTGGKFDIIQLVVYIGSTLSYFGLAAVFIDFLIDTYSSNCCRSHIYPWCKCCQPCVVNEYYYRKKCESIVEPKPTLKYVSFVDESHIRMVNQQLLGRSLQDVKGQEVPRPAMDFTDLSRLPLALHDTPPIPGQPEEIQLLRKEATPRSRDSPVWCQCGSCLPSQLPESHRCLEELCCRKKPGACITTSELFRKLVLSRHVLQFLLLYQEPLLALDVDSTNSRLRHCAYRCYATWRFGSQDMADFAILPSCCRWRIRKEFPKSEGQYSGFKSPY
# Experiment: P2X7 calcium mobilization assay, high throughput, antagonist activity (Example 4A)
# Format: cell-based
# Method: One day prior to the experiment, cells are plated at a density of 100,000 cells/well in a 96 well black/clear TC plate (Corning® Costar®, Sigma-Aldrich Co., St. Louis, Mo.). […] After one hour dye incubation, wells are rinsed once with 50 μL assay solution, and are then incubated for an hour at room temperature with 100 μL assay solution containing the test compound. […] After the one hour incubation, plates are transferred to a FLIPR^TETRA instrument (Molecular Devices, Sunnyvale, Calif.) for calcium mobilization analysis.
# First, the average maximum relative fluorescent unit (RFU) response from the negative control wells (no agonist) is subtracted from the maximum response detected for each of the other experimental wells. Second, average maximum RFU response is calculated for the positive control wells (agonist wells).
# [1] = SH-SY5Y cells, 50% decrease in fluorescence response to 80 μM BzATP, read-out: IC50
smiles,measurement,setting,value
"O=C(NCC12CC3CC(CC(C3)C1)C2)c1cccc2nc(CN3CCNCC3)cn12 [Compound 5, N-(adamantan-1-ylmethyl)-2-(piperazin-1-ylmethyl)imidazo[1,2-a]pyridine-5-carboxamide]",IC50,[1],< 2000 nM
"O=C(NCC12CC3CC(CC(C3)C1)C2)c1cccc2nc(CCO)cn12 [Compound 6, N-(adamantan-1-ylmethyl)-2-(2-hydroxyethyl)imi-dazo[1,2-a]pyridine-5-carboxamide]",IC50,,< 2000 nM
"CCOC(=O)c1cn2c(C(=O)NCC34CC5CC(CC(C5)C3)C4)c(Cl)ccc2n1 [Compound 7, 5-[(adamantan-1-ylmethyl)-carbamoyl]-6-chloro-imidazo[1,2-a]pyridine-2-carboxylic acid ethyl ester]",IC50,[1],< 2000 nM
"O=C(NCCO)c1cn2c(C(=O)NCC34CC5CC(CC(C5)C3)C4)cccc2n1 [Compound 8, 5-N-(adamantan-1-ylmethyl)--(2-hydroxyethyl)imi-dazo[1,2-a]pyridine-2,5-dicarboxamide]",IC50,,< 2000 nM
"CN(CCO)C(=O)c1cn2c(C(=O)NCC34CC5CC(CC(C5)C3)C4)cccc2n1 [Compound 9, 5-N-(adamantan-1-ylmethyl)--(2-hydroxyethyl)-- methylimidazo[1,2-a]pyridine-2,5-dicarboxamide]",IC50,[1],< 2000 nM
"CC(C)CNCc1cn2c(C(=O)NCC34CC5CC(CC(C5)C3)C4)cccc2n1 [Compound 12, N-(adamantan-1-ylmethyl)-2-[(isobutyl-amino)methyl]imi-dazo[1,2-a]pyridine-5-carboxamide]",IC50,,< 2000 nM
"O=C(NCC12CC3CC(CC(C3)C1)C2)c1cccc2nc(CN3CCN(CCO)CC3)cn12 [Compound 13, N-(adamantan-1-ylmethyl)-2-{[4-(2-hydroxyethyl)piperazin-1-yl]methyl}imi-dazo[1,2-a]pyridine-5-carboxamide]",IC50,,< 2000 nM
"CCOC(=O)c1nc2cccc(C(=O)NCC34CC5CC(CC(C5)C3)C4)n2c1Cl [Compound 15, ethyl 5-[(adamantan-1-ylmethyl)carbamoyl]-3-chloroimidazo[1,2-a]pyridine-2-carboxylate]",IC50,[1],< 2000 nM
"O=C(O)Cc1cn2c(C(=O)NCC34CC5CC(CC(C5)C3)C4)cccc2n1 [Compound 16, {5-[(adamantan-1-ylmethyl)carbamoyl]imi-dazo[1,2-a]pyridin-2-yl}acetic acid]",IC50,,< 2000 nM
"CCNC(=O)Cc1cn2c(C(=O)NCC34CC5CC(CC(C5)C3)C4)cccc2n1 [Compound 17, N-(adamantan-1-ylmethyl)-2-[2-(ethylamino)-2-oxoethyl]imidazo[1,2-a]pyridine-5-carboxamide]",IC50,[1],< 2000 nM
"CC(C)CNC(=O)Cc1cn2c(C(=O)NCC34CC5CC(CC(C5)C3)C4)cccc2n1 [Compound 18, N-(adamantan-1-ylmethyl)-2-[2 (isobutylamino)-2-oxoethyl]imidazo[1,2-a]pyridine-5-carboxamide]",IC50,[1],< 2000 nM
"CN(C)C(=O)CNC(=O)Cc1cn2c(C(=O)NCC34CC5CC(CC(C5)C3)C4)cccc2n1 [Compound 20, N-(adamantan-1-ylmethyl)-2-(2-{[2-(dimethylamino)-2-oxoethyl]amino}-2-oxoethyl)imidazo[1,2-a]pyridine-5-carboxamide]",IC50,[1],< 2000 nM
"NC(=O)CNC(=O)Cc1cn2c(C(=O)NCC34CC5CC(CC(C5)C3)C4)cccc2n1 [Compound 24, N-(adamantan-1-ylmethyl)-2-{2-[(2-amino-2-oxoethyl)amino]-2-oxoethyl}imidazo[1,2-a]pyridine-5-carboxamide]",IC50,[1],< 2000 nM
"CC(NC(=O)Cc1cn2c(C(=O)NCC34CC5CC(CC(C5)C3)C4)cccc2n1)C(N)=O (stereo not shown) [Compound 25, N-(adamantan-1-ylmethyl)-2-{2-[(2-amino-1-methyl-2-oxoethyl)amino]-2-oxoethyl}imidazo[1,2-a]pyridine-5-carboxamide]",IC50,[1],< 2000 nM
"O=C(Cc1cn2c(C(=O)NCC34CC5CC(CC(C5)C3)C4)cccc2n1)NCCO [Compound 26, N-(adamantan-1-ylmethyl)-2-{2-[(2-hydroxyethyl)amino]-2-oxoethyl}imidazo[1,2-a]pyridine-5-carboxamide]",IC50,[1],< 2000 nM
"O=C(Cc1cn2c(C(=O)NCC34CC5CC(CC(C5)C3)C4)cccc2n1)NCCCO [Compound 27, N-(adamantan-1-ylmethyl)-2-{2-[(3-hydroxypropyl)amino]-2-oxoethyl}imi-dazo[1,2-a]pyridine-5-carboxamide]",IC50,,< 2000 nM
"C[C@@H](O)CNC(=O)Cc1cn2c(C(=O)NCC34CC5CC(CC(C5)C3)C4)cccc2n1 [Compound 28, N-(adamantan-1-ylmethyl)-2-(2-{[(2R)-2-hydroxy-propyl]amino}-2-oxoethyl)imi-dazo[1,2-a]pyridine-5-carboxamide]",IC50,,< 2000 nM
"C[C@H](O)CNC(=O)Cc1cn2c(C(=O)NCC34CC5CC(CC(C5)C3)C4)cccc2n1 [Compound 29, N-(adamantan-1-ylmethyl)-2-(2-{[(2S)-2-hydroxy-propyl]amino}-2-oxoethyl)imi-dazo[1,2-a]pyridine-5-carboxamide]",IC50,,< 2000 nM
"CCC(O)CNC(=O)Cc1cn2c(C(=O)NCC34CC5CC(CC(C5)C3)C4)cccc2n1 (stereo not shown) [Compound 30, N-(adamantan-1-ylmethyl)-2-{2-[(2-hydroxy-butyl)amino]-2-oxoethyl}imi-dazo[1,2-a]pyridine-5-carboxamide]",IC50,,< 2000 nM
"CC(O)CCNC(=O)Cc1cn2c(C(=O)NCC34CC5CC(CC(C5)C3)C4)cccc2n1 (stereo not shown) [Compound 31, N-(adamantan-1-ylmethyl)-2-{2-[(3-hydroxybutyl)amino]-2-oxoethyl}imidazo[1,2-a]pyridine-5-carboxamide]",IC50,[1],< 2000 nM
"CC(C)[C@H](CO)NC(=O)Cc1cn2c(C(=O)NCC34CC5CC(CC(C5)C3)C4)cccc2n1 [Compound 32, N-(adamantan-1-ylmethyl)-2-(2-{[(1R)-1-(hydroxymethyl)-2-methylpropyl]amino}-2-oxoethyl)imidazo[1,2-a]pyridine-5-carboxamide]",IC50,[1],< 2000 nM
"CC(O)CNC(=O)Cc1cn2c(C(=O)NCC34CC5CC(CC(C5)C3)C4)cccc2n1 (stereo not shown) [Compound 33, N-(adamantan-1-ylmethyl)-2-{2-[(2-hydroxypropyl)amino]-2-oxoethyl}imidazo[1,2-a]pyridine-5-carboxamide]",IC50,[1],< 2000 nM
"COCC1CCN(C(=O)Cc2cn3c(C(=O)NCC45CC6CC(CC(C6)C4)C5)cccc3n2)CC1 [Compound 34, N-(adamantan-1-ylmethyl)-2-{2-[4-(methoxy-methyl)piperidin-1-yl]-2-oxoethyl}imidazo[1,2-a]pyridine-5-carboxamide]",IC50,[1],< 2000 nM
"COCCC1CCN(C(=O)Cc2cn3c(C(=O)NCC45CC6CC(CC(C6)C4)C5)cccc3n2)CC1 [Compound 35, N-(adamantan-1-ylmethyl)-2-{2-[4-(2-methoxyethyl)piperidin-1-yl]-2-oxoethyl}imidazo[1,2-a]pyridine-5-carboxamide]",IC50,[1],< 2000 nM
"CN(C(=O)Cc1cn2c(C(=O)NCC34CC5CC(CC(C5)C3)C4)cccc2n1)C1CCOC1 (stereo not shown) [Compound 37, N-(adamantan-1-ylmethyl)-2-{2-[methyl(tetrahydrofuran-3-yl)amino]-2-oxoethyl}imidazo[1,2-a]pyridine-5-carboxamide]",IC50,[1],< 2000 nM
"CN1CCC(N(C)C(=O)Cc2cn3c(C(=O)NCC45CC6CC(CC(C6)C4)C5)cccc3n2)C1 (stereo not shown) [Compound 39, N-(adamantan-1-ylmethyl)-2-{2-[methyl(1-methylpyrrolidin-3-yl)amino]-2-oxoethyl}imidazo[1,2-a]pyridine-5-carboxamide]",IC50,[1],< 2000 nM
"COC1CCN(C(=O)Cc2cn3c(C(=O)NCC45CC6CC(CC(C6)C4)C5)cccc3n2)CC1 [Compound 42, N-(adamantan-1-ylmethyl)-2-[2-(4-methoxypiperidin-1-yl)-2-oxoethyl]imidazo[1,2-a]pyridine-5-carboxamide]",IC50,[1],< 2000 nM
CS(=O)(=O)C1CCN(C(=O)Cc2cn3c(C(=O)NCC45CC6CC(CC(C6)C4)C5)cccc3n2)CC1 [Compound 43],IC50,[1],< 2000 nM
"CS(=O)(=O)N1CCN(C(=O)Cc2cn3c(C(=O)NCC45CC6CC(CC(C6)C4)C5)cccc3n2)CC1 [Compound 44, N-(adamantan-1-ylmethyl)-2-{2-[4-(methylsulfonyl)piperazin-1-yl]-2-oxoethyl}imidazo[1,2-a]pyridine-5-carboxamide]",IC50,[1],< 2000 nM
"CN(CCNS(C)(=O)=O)C(=O)Cc1cn2c(C(=O)NCC34CC5CC(CC(C5)C3)C4)cccc2n1 [Compound 45, N-(adamantan-1-ylmethyl)-2-[2-(methyl{2-[(methyl-sulfonyl)amino]eth-yl}amino)-2-oxoethyl]imidazo[1,2-a]pyridine-5-carboxamide]",IC50,[1],< 2000 nM
"O=C1CN(C(=O)Cc2cn3c(C(=O)NCC45CC6CC(CC(C6)C4)C5)cccc3n2)CCN1 [Compound 46, N-(adamantan-1-ylmethyl)-2-[2-oxo-2-(3-oxopiperazin-1-yl)ethyl]imidazo[1,2-a]pyridine-5-carboxamide]",IC50,[1],< 2000 nM
